Test results reported in article PMC11923649, “Novel C-2 Aromatic Heterocycle-Substituted Triterpenoids Inhibit Hedgehog Signaling in GLI1 Overexpression Cancer Cells” (ACS Omega, 2025).

Assays:
[1] = system: K562 (chronic myelogenous leukemia); assay: MTS cytotoxicity assay, 72 h, K562; assay type: cell-based; settings: Homo sapiens, Table 1
Method in brief: (§1)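 Cells were seeded and, the next day, exposed to compounds at 50–0.0975 μmol/L in 2-fold dilutions for 72 h at 37 °C, 5% CO2. MTS/phenazine methosulfate was then added for 1–4 h, absorbance was read at 490 nm, and IC50 values were derived.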

U2OS = assay: MTS cytotoxicity assay, 72 h, U2OS; assay type: cell-based; settings: Homo sapiens
CCRF-CEM = assay: MTS cytotoxicity assay, 72 h, CCRF-CEM; assay type: cell-based; settings: Table 1; for IC50: Homo sapiens, CCRF-CEM, 72 h, MTS; for SI (selectivity index): IC50 of CCRF-CEM line vs average of both fibroblasts (BJ and MRC-5)
Method in brief: as §1

[2] = system: BJ human skin fibroblasts; assay: MTS cytotoxicity assay, 72 h, BJ fibroblasts; assay type: cell-based; settings: Homo sapiens, Skin fibroblast, normal fibroblasts
Method in brief: as §1

MRC-5 lung fibroblasts = assay: MTS cytotoxicity assay, 72 h, MRC-5 fibroblasts; assay type: cell-based, human; settings: Homo sapiens, MRC5, 72 h, normal fibroblasts
Method in brief: as §1

[3] = system: Gli1 protein in DU-145 cells; assay: Western blot of Gli1 in DU-145 cells, 24 h; assay type: cell-based, human; settings: DU-145, 24 h, immunoblot
Description: In order to verify that compounds 11a and 11b inhibit the proliferation of A549 and DU-145 through Hh inhibition, we monitored the expression of Hh target genes in these cell lines (Figure 2). […] The decreased protein expression of Gli1 targets Cyclin D1, N-Myc, and Bcl-2 strongly indicates inhibition of its transcriptional activity, and their downregulation correlates with the data obtained by the U-87 MG-Gli-FLuc reporter assay. Importantly, these proteins are involved in cell cycle progression, proliferation, and survival. N-Myc amplification or deregulation of transcription, stability, and degradation is associated with many malignancies,[34] and the observed downregulation induced by 11a and 11b may reduce its oncogenic effect.
Figure 2 Effect of compounds 11a and 11b on the protein expression of the Gli1 transcription factor and its transcriptional targets in A549 (A) and DU145 (B) cells following 24 h of incubation. […]
Cells were washed with PBS and lysed on ice in 200 μL of RIPA (Radioimmunoprecipitation Assay) buffer for 30 min. Then, cell lysates were clarified by centrifugation (15000 rpm, 20 min, 4 °C), and the protein concentration in the collected supernatants was determined using a BCA method (Bicinchoninic Acid test). […] Luminescence signal detection was performed by using an Odyssey FC instrument (LI-COR Biosciences).

[4] = Parallel Artificial Membrane Permeability Assay (PAMPA); assay type: in vitro ADME; settings: read-out: PAMPA log Pe (converted)
Excerpt: (§2) The Parallel Artificial Membrane Permeability Assay (PAMPA) has emerged as a primary screen for determining passive transcellular permeability. […] The Caco-2 and MDCK-MDR1 permeability assays are established models of intestinal[37] and blood-brain barriers, respectively.[38]

[5] = Caco-2 permeability assay; assay type: in vitro ADME; settings: human, Caco-2; for Papp A→B: cm/s, read-out: Caco-2 Papp (×10^−6)
Excerpt: as §2

Caco-2 monolayer = assay: Caco-2 permeability assay; assay type: in vitro ADME
Excerpt: as §2

MDR1 = assay: Caco-2 permeability assay; assay type: in vitro ADME; settings: human, Caco-2; B–A / A–B
Excerpt: as §2

| SMILES | IC50 [1] [µM] | IC50 (U2OS; Table 1) [µM] | IC50 (U2OS; full Table S1) [µM] | IC50 (CCRF-CEM) [µM] | SI (selectivity index) (CCRF-CEM) | IC50 ([2]; Table 1) [µM] | IC50 ([2]; full Table S1) [µM] | IC50 (MRC-5 lung fibroblasts; Table 1) [µM] | IC50 (MRC-5 lung fibroblasts; full Table S1) [µM] | Endogenous Gli1 protein level [3] | Papp [4] [×10⁻⁶ cm/s] | recovery [5] [%] | Papp A→B [5] [×10⁻⁶ cm/s] | Caco-2 Active efflux (Caco-2 monolayer) | efflux ratio (MDR1) |
| --- | --- | --- | --- | --- | --- | --- | --- | --- | --- | --- | --- | --- | --- | --- | --- |
| C=C(C)[C@@H]1CC[C@]2(C(=O)O)CC[C@]3(C)C(CCC4[C@@]5(C)C=C(c6ccco6)C(=O)C(C)(C)C5CC[C@]43C)C12 (stereo partly drawn) [Compound 11a, 2-(Furan-2-yl)-3-oxolupa-1,20(29)-dien-28-oic acid] | 6.3 | 21 | 20.9 | 8.7 | 3.8 | 39 | 39.1 | 27 | 26.8 | inhibit the endogenous Gli1 protein level in a dose-dependent manner | 0.0158 | 68.5 | 0.44 | Yes | 2.33 |
| C=C(C)[C@@H]1CC[C@]2(C(=O)O)CC[C@]3(C)C(CCC4[C@@]5(C)C=C(c6ccoc6)C(=O)C(C)(C)C5CC[C@]43C)C12 (stereo partly drawn) [Compound 11b, 2-(Furan-3-yl)-3-oxolupa-1,20(29)-dien-28-oic acid] | 9.6 | 26 | 26.3 | 6 | 5 | 37 | 36.6 | 24 | 23.9 | inhibit the endogenous Gli1 protein level in a dose-dependent manner | 0.0162 | 58.2 | 1.07 | No (less than or very close to the limit of active and passive efflux (≤2)) | 1.77 |
